Where two headings read alike, the source gives them in different places.
Tests used:
NKCC2 = target: T1, NKCC2 (Homo sapiens, UniProt Q13621); settings: cited from earlier work
T1 sequence (Q13621 1-1099): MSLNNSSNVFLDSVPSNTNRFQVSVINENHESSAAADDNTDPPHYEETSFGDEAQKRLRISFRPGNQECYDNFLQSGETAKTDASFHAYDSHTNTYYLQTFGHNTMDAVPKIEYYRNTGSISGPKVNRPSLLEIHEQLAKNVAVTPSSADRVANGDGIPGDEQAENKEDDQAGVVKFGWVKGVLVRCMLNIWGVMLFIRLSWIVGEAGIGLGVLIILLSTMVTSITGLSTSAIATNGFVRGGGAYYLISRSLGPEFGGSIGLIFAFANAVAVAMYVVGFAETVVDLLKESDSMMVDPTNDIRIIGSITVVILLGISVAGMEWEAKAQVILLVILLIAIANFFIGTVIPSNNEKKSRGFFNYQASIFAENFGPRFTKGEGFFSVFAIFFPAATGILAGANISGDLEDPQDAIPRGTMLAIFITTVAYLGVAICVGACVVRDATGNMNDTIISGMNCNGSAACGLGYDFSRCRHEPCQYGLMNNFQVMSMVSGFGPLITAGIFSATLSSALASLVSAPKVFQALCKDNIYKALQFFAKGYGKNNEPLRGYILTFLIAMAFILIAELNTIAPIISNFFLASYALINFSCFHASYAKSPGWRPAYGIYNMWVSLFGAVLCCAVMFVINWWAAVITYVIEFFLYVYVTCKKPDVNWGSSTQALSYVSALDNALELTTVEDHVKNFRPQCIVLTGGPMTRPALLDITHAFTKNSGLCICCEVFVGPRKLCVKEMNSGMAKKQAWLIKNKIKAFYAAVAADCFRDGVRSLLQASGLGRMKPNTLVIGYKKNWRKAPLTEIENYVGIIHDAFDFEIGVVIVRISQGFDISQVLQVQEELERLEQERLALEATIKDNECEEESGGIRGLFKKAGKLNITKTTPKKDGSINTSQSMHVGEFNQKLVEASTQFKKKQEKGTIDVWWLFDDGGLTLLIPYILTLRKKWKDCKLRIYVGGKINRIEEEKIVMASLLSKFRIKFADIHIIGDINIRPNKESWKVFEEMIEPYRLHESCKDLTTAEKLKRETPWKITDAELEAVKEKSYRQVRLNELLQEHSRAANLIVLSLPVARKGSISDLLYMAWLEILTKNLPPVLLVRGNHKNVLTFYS

hNKCC1a = target: T2, hNKCC1a (Homo sapiens, UniProt P55011); settings: cited from earlier work
T2 sequence (P55011 1-1212): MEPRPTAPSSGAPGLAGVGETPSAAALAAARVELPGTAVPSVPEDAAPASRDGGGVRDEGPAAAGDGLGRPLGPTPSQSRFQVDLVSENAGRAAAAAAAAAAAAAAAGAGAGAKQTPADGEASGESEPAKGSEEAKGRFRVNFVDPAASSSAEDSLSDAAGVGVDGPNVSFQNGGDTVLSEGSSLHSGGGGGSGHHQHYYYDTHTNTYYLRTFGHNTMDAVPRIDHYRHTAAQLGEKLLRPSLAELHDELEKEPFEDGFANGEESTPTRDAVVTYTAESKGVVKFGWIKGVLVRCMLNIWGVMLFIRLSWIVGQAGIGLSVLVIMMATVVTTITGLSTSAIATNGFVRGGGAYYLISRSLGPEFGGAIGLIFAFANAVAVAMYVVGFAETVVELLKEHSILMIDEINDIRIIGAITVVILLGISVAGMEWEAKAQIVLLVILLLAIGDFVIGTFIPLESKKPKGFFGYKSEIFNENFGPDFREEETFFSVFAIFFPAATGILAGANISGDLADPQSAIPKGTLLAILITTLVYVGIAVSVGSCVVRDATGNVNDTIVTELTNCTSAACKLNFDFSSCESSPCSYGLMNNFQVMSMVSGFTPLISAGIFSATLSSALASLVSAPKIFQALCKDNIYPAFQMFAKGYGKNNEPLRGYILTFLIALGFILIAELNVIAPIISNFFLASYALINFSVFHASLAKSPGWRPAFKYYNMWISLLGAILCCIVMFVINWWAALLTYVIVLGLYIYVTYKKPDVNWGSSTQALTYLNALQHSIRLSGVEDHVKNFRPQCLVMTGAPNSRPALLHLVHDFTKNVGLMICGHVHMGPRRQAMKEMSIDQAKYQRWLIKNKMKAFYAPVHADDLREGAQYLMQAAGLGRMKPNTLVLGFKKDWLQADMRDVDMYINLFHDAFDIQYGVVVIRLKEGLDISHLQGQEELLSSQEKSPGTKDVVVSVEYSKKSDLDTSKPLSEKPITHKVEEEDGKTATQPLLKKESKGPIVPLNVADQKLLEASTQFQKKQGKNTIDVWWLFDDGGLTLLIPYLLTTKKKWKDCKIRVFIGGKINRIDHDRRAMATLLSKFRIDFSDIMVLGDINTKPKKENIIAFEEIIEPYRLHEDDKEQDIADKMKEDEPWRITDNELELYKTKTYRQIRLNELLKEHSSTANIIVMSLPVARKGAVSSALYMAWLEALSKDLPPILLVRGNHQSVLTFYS

hNKCC1b = target: T3, hNKCC1b (Homo sapiens, UniProt P55011); settings: cited from earlier work
T3 sequence (P55011 1-1196 isoform P55011-3): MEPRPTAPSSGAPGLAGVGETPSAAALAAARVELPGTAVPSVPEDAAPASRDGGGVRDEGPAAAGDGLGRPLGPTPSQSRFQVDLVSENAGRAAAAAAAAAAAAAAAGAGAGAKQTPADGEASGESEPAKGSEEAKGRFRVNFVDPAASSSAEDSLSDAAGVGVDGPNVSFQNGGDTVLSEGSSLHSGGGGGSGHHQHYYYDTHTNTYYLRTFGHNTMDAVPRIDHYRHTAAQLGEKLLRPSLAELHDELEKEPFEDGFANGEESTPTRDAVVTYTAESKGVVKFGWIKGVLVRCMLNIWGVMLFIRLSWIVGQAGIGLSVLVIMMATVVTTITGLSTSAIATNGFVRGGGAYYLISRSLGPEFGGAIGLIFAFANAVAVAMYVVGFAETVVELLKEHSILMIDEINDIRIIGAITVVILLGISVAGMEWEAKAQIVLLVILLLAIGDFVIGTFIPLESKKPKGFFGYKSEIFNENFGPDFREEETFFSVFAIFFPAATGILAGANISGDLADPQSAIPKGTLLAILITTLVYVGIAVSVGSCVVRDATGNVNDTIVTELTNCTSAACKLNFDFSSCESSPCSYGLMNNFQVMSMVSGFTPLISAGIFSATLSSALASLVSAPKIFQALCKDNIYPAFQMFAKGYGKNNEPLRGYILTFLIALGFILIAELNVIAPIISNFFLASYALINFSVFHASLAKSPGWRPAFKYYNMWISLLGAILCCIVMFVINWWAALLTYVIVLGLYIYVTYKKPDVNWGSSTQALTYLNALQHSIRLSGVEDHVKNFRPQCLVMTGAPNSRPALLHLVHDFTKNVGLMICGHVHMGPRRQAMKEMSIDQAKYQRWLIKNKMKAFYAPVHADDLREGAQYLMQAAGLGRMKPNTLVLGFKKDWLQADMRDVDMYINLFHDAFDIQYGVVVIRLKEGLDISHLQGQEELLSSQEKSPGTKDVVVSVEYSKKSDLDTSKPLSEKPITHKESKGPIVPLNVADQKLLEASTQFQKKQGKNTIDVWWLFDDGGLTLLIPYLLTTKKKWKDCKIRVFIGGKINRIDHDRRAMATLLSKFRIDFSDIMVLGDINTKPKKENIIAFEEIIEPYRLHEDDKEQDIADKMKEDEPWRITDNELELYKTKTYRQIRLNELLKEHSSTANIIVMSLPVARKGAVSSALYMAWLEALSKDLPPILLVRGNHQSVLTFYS

[1] = Cross-over trial dapagliflozin / bumetanide: weekly urinary excretion (Table 9); format: in vivo, healthy volunteers; settings: for Ca^++ / Glucose / K^+ / Mg^++ / Na^+ / Urate: urine, Day 1-7
[2] = in vivo; cited from earlier work
[3] = in vivo; cited from earlier work; remark: listed apart in the source
[4] = during the remainder of the day after the dose, high salt intake; cited from earlier work
[5] = in vivo; cited from earlier work; remark: listed apart in the source
[6] = 1 mg; cited from earlier work
[7] = Americas group, at four months; cited from earlier work
[8] = with spironolactone treatment, 12 patients, p<0.05, cited from earlier work
[9] = cited from earlier work

For `NS(=O)(=O)c1cc(-c2nnn[nH]2)c(NCc2cccs2)cc1Cl` [Azosemide], the IC50 (NKCC2) is given as 3100 nM, the IC50 (hNKCC1a) is given as 250 nM and the IC50 (hNKCC1b) is given as 210 nM.
For `CCCCNc1cc(C(=O)O)cc(S(N)(=O)=O)c1Oc1ccccc1` [Bumetanide], the “greater natriuresis with bumetanide” value ([1]; given after one week of dapaglifozin therapy) was 36%, the “Ca^++” value [1] was 667 ± 54 mg-wk^−1 and the Glucose [1] was 0.3 ± 0.06 g-wk^−1. The “K^+” value [1] was 454 ± 32 mmol-wk^−1, the “Mg^++” value [1] was 613 ± 48 mg-wk^−1 and the “Na^+” value [1] was 669 ± 46 mmol-wk^−1. The Urate [1] was 2249 ± 160 mg-wk^−1, the IC50 (NKCC2) was 250 nM and the IC50 (hNKCC1a) was 950 nM. The IC50 (hNKCC1b) was 840 nM.
In the case of `Cc1ccc([C@@H]2O[C@H](CO)[C@@H](O)[C@H](O)[C@H]2O)cc1Cc1ccc(-c2ccc(F)cc2)s1` [Canagliflozin], the Bioavailability [2] is listed as 65%, the T1/2 [2] is listed as 10 h and the Tmax [2] is listed as 1 to 2 h.
In the case of `CCOc1ccc(Cc2cc([C@@H]3O[C@H](CO)[C@@H](O)[C@H](O)[C@H]3O)ccc2Cl)cc1` [Dapagliflozin], the “greater natriuresis with dapagliflozin” value ([1]; given after one week of bumetanide therapy) is reported as 190%, the “Ca^++” value [1] is reported as 597 ± 76 mg-wk^−1 and the Glucose [1] is reported as 239 ± 20 g-wk^−1. The “K^+” value [1] was 415 ± 24 mmol-wk^−1, the “Mg^++” value [1] was 548 ± 37 mg-wk^−1 and the “Na^+” value [1] was 625 ± 15 mmol-wk^−1. For the same molecule, the Urate [1] was 3382 ± 187 mg-wk^−1, the T1/2 [2] was 13 h and the Tmax [2] was 1 to 1.5 h.
For `OC[C@H]1O[C@@H](c2ccc(Cl)c(Cc3ccc(O[C@H]4CCOC4)cc3)c2)[C@H](O)[C@@H](O)[C@@H]1O` [Empagliflozin], the Bioavailability [2] is listed as 95%, the T1/2 [2] is listed as 13 h and the Tmax [2] is listed as 1.5 h.
In the case of `COC(=O)[C@@H]1CC2=CC(=O)CC[C@]2(C)[C@@]23O[C@@H]2C[C@@]2(C)[C@@H](CC[C@@]24CCC(=O)O4)[C@H]13` [Eplerenone], the half-life [3] is given as 4 to 6 h.
In the case of `CCOc1ccc(Cc2cc([C@]34OC[C@](CO)(O3)[C@@H](O)[C@H](O)[C@H]4O)ccc2Cl)cc1` [Ertugliflozin], the Bioavailability [2] is given as 87%, the T1/2 [2] is given as 12.5 h and the Tmax [2] is given as 2 to 3 h.
For `C=C(CC)C(=O)c1ccc(OCC(=O)O)c(Cl)c1Cl` [Ethacrynic acid], the IC50 (NKCC2) is listed as 5100 nM.
In the case of `NS(=O)(=O)c1cc(C(=O)O)c(NCc2ccco2)cc1Cl` [Furosemide], the “reduction of GFR” value [4] is given as “circa 23%” and the IC50 (NKCC2) is given as 5100 nM.
In the case of `OC[C@H]1O[C@@H](c2ccc(F)c(Cc3cc4ccccc4s3)c2)[C@H](O)[C@@H](O)[C@@H]1O` [Ipragliflozin], the Bioavailability [2] is given as 92% and the T1/2 [2] is given as 15 h.
In the case of `O=C1CC[C@@]2(O)[C@H]3Cc4ccc(O)c5c4[C@@]2(CCN3CC2CC2)[C@H]1O5` [Naltrexone, 17-(cyclopropylmethyl)-4,5-epoxy-3,14-dihydroxymorphinan-6-one], the fraction metabolized [5] is listed as over 98%.
For `COc1cc2nc(N3CCN(C(=O)c4ccco4)CC3)nc(N)c2cc1OC` [Prazosin], the Oral bioavailability [6] is given as 56.9%.
In the case of `CCOc1ccc(Cc2cc([C@@H]3O[C@H](SC)[C@@H](O)[C@H](O)[C@H]3O)ccc2Cl)cc1` [Sotagliflozin], the Bioavailability [2] is listed as 70%, the T1/2 [2] is listed as 2.5 h and the Tmax [2] is listed as 1.9 h.
In the case of `CC(=O)S[C@@H]1CC2=CC(=O)CC[C@]2(C)[C@H]2CC[C@@]3(C)[C@@H](CC[C@@]34CCC(=O)O4)[C@H]12` [Spironolactone], the “patients discontinuing the study drug due to hyperkalemia” value [7] is listed as 25.2%, the hypoxic index ([8]; vs. 13.6±10.8) is listed as 6.7±6.6 events/h and the AHI ([8]; vs. 39.8±19.5) is listed as 22.0±6.8 events/h. The half-life [3] was “about 1.5 h” and the “time to steady state concentration” value [3] was 7 to 10 days.
For `CCc1ccc(Cc2ccc3c(c2)[C@]2(OC3)O[C@H](CO)[C@@H](O)[C@H](O)[C@H]2O)cc1` [Tofogliflozin], the Bioavailability [2] is listed as 98%, the T1/2 [2] is listed as 5.5 h and the Tmax [2] is listed as 1.1 h.
In the case of `Cc1cccc(Nc2ccncc2S(=O)(=O)NC(=O)NC(C)C)c1` [Torsemide], the IC50 (NKCC2) is given as 300 nM, the Bioavailability ([9]; in vivo) is given as 80-100% and the duration of action ([9]; in vivo) is given as 3 to 5 h. For the same molecule, the plasma half-life ([9]; unchanged in chronic renal failure) was 3 to 5 h, the IC50 (hNKCC1a) was 6200 nM and the IC50 (hNKCC1b) was 8200 nM.
In the case of `C[C@]12CCC(=O)C=C1C=C[C@@H]1[C@@H]2CC[C@@]2(C)[C@H]1CC[C@@]21CCC(=O)O1` [canrenone], the half-life [3] is listed as “more than 15 hours”.

— US11737985B2 (priority 2013, dated 2023)
